The structures appear in SMILES notation. Where two headings read alike, the source gives them in different places.

In assay [1] the target is T1, EGFR L858R/T790M/C797S (BaF3-LTC cells) (Homo sapiens, UniProt P00533, C797S/L858R/T790M).
T1 construct: expressed in transfected cells; host or cells: BaF3
Nature of the assay: EGFR degradation HTRF assay, BaF3-LTC cells. The format is cell-based. The procedure, abridged:
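Cells treated 16 h at 37 °C, 5% CO2 in medium with 0.2% DMSO; top final concentration 10 uM, 5-fold dilution, 8 doses. Lysates read by HTRF (665/620 nm); degradation % versus DMSO high control, DC50 from four-parameter fit, Dmax as maximal degradation.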
Background: Time-resolved FRET reads energy transfer from a long-lived donor to a nearby acceptor.

Assay [2] relates to EGFR Del19/T790M/C797S (H1975-clone #28). In words: EGFR degradation HTRF assay, H1975-clone #28 DTC cells. The format is cell-based. The procedure, abridged: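 Engineered H1975 lines (lentiviral mutant EGFR, endogenous EGFR knocked out, single-clone verified); 16h compound, 37° C., 5% CO2, 0.2% DMSO; 8-point 5-fold series from 10 uM final. HTRF lysate read; % degradation vs DMSO, four-parameter fit → DC50, Dmax.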

Where [3] appears, read: BaF3-LTC cells; EGFR degradation, IC50 (DC50) from curve fit; read-out: DC50(nM) BaF3-LTC.
The mark [4] stands for this setting: BaF3-LTC cells; maximum percentage of inhibition (degradation); read-out: Dmax (%) BaF3-LTC.
[5] abbreviates: H1975 # 28 DTC cells; EGFR degradation, IC50 (DC50) from curve fit; read-out: DC50(nM) H1975 # 28 DTC.
Setting [6] is: H1975 # 28 DTC cells; maximum percentage of inhibition (degradation).

T1 sequence (P00533 25-1210 T790M/C797S/L858R): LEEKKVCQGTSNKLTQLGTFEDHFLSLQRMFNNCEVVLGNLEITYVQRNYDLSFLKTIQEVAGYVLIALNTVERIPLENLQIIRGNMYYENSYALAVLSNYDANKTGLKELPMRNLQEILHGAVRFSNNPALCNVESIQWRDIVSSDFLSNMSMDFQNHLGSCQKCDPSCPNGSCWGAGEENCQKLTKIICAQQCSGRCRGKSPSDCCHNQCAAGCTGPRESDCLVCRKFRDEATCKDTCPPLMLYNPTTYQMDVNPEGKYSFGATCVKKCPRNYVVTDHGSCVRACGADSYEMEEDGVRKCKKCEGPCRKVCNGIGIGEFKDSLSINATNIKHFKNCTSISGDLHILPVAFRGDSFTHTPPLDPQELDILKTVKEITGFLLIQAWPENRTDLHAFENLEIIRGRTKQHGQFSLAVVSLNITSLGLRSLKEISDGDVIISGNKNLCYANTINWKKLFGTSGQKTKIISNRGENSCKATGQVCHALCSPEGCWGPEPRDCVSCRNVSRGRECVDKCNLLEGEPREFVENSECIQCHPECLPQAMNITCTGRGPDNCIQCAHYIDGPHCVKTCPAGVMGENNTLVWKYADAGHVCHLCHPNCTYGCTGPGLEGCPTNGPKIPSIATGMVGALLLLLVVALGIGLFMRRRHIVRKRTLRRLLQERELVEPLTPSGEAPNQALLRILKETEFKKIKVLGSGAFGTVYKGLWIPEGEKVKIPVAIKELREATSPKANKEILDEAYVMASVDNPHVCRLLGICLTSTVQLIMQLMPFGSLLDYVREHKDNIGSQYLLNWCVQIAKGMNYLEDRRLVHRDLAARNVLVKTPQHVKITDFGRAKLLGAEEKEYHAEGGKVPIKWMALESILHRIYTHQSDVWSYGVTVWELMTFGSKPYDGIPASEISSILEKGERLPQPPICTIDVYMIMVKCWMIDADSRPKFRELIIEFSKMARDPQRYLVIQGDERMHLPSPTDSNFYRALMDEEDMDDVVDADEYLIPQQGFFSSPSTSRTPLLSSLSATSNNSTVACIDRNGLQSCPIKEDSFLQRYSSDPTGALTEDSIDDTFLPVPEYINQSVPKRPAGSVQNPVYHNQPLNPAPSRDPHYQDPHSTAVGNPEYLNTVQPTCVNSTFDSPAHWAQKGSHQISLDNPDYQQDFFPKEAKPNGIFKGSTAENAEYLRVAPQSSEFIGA

Regarding `CCOc1cc(N2CCC(N3CCN(CCc4c(F)ccc5c4oc(=O)n5C4CCC(=O)NC4=O)CC3)CC2)c(CC)cc1Nc1ncc(Br)c(Nc2ccc3nc(CC)ccc3c2P(C)(C)=O)n1` (stereo not drawn) [Example 471, 3-(7-(2-(4-(1-(4-((5-bromo-4-((5-(dimethylphosphoryl)-2-ethylquinolin-6-yl)amino)pyrimidin-2-yl)amino)-5-ethoxy-2-ethylphenyl)piperidin-4-yl)piperazin-1-yl)ethyl)-6-fluoro-2-oxobenzo[d]oxazol-3(2H)-yl)piperidine-2_6-dione], the DC50 in assay [1] (setting [3]) stood at 36 nM; in assay [2] (setting [5]), 1.98 nM. Also, the Dmax in assay [1] (setting [4]) stood at 83.9%. For the same molecule, the “Dmax (%) H1975 # 28 DTC” value in assay [2] (setting [6]) was found to be 73.66%.

Turning to `CCc1cc(Nc2ncc(Br)c(Nc3ccc4nc(C)ccc4c3P(C)(C)=O)n2)c(OC)cc1N1CCC(N2CCN(C(=O)C3CN(c4cccc5c4oc(=O)n5C4CCC(=O)NC4=O)C3)CC2)CC1` (stereo not drawn) [Example 519, 3-(7-(3-(4-(1-(4-((5-bromo-4-((5-(dimethylphosphoryl)-2-methylquinolin-6-yl)amino)pyrimidin-2-yl)amino)-2-ethyl-5-methoxyphenyl)piperidin-4-yl)piperazine-1-carbonyl)azetidin-1-yl)-2-oxobenzo[d]oxazol-3(2H)-yl)piperidine-2,6-dione], the DC50 in assay [1] (read-out: DC50(nM) BaF3-LTC; BaF3-LTC cells; EGFR degradation, IC50 (DC50) from curve fit) amounted to 1.19 nM; in assay [2] (read-out: DC50(nM) H1975 # 28 DTC; H1975 # 28 DTC cells; EGFR degradation, IC50 (DC50) from curve fit), 0.378 nM. Also, the Dmax in assay [1] (read-out: Dmax (%) BaF3-LTC, BaF3-LTC cells; maximum percentage of inhibition (degradation)) was 92.1%. Further, the “Dmax (%) H1975 # 28 DTC” value in assay [2] (setting [6]) turned out to be 74.38%.

Take `CCOc1cc(N2CCC(N3CCN(CCc4ccc(F)c5c4n(CC)c(=O)n5C4CCC(=O)NC4=O)CC3)CC2)c(CC)cc1Nc1ncc(Br)c(Nc2cc(F)c3nc(CC)ccc3c2P(C)(C)=O)n1` (stereo not drawn) [Example 603, 3-(4-(2-(4-(1-(4-((5-bromo-4-((5-(dimethylphosphoryl)-2-ethyl-8-fluoroquinolin-6-yl)amino)pyrimidin-2-yl)amino)-5-ethoxy-2-ethylphenyl)piperidin-4-yl)piperazin-1-yl)ethyl)-3-ethyl-7-fluoro-2-oxo-2,3-dihydro-1H-benzo[d]imidazol-1-yl)piperidine-2,6-dione]: the DC50 was found to be 7.62 nM in assay [1] (setting [3]) and 1.57 nM in assay [2] (setting [5]). In addition, the greatest degradation seen (Dmax) in assay [1] (setting [4]) turned out to be 91.2%. Besides, the “Dmax (%) H1975 # 28 DTC” value in assay [2] (setting [6]) amounted to 81.2%.

Take `CCOc1cc(N2CCC(N3CCN(CCc4c(F)ccc5c4oc(=O)n5C4CCC(=O)NC4=O)CC3)CC2)c(CC)cc1Nc1ncc(Br)c(Nc2cc(F)c3nc(CC)ccc3c2P(C)(C)=O)n1` (stereo not drawn) [Example 595, 3-(7-(2-(4-(1-(4-((5-bromo-4-((5-(dimethylphosphoryl)-2-ethyl-8-fluoroquinolin-6-yl)amino)pyrimidin-2-yl)amino)-5-ethoxy-2-ethylphenyl)piperidin-4-yl)piperazin-1-yl)ethyl)-6-fluoro-2-oxobenzo[d]oxazol-3(2H)-yl)piperidine-2,6-dione]: the DC50 in assay [1] (setting [3]) stood at 16.1 nM; in assay [2] (setting [5]), 1.02 nM. Also, the Dmax in assay [1] (setting [4]) turned out to be 82%. Moreover, the “Dmax (%) H1975 # 28 DTC” value in assay [2] (setting [6]) came out at 72.7%.

`CCOc1cc(N2CCC(N3CCN(CCc4cc5oc(=O)n(C6CCC(=O)NC6=O)c5cc4C)CC3)CC2)c(CC)cc1Nc1ncc(Br)c(Nc2ccc3c(=O)n(CC)ncc3c2P(C)(C)=O)n1` (stereo not drawn) [Example 554, 3-(6-(2-(4-(1-(4-((5-bromo-4-((5-(dimethylphosphoryl)-2-ethyl-1-oxo-1,2-dihydrophthalazin-6-yl)amino)pyrimidin-2-yl)amino)-5-ethoxy-2-ethylphenyl)piperidin-4-yl)piperazin-1-yl)ethyl)-5-methyl-2-oxobenzo[d]oxazol-3(2H)-yl)piperidine-2,6-dione]: the DC50 came to 2.49 nM in assay [1] (setting [3]) and 0.662 nM in assay [2] (setting [5]). In addition, in assay [1] (setting [4]), the Dmax is 91.9%. Also, the “Dmax (%) H1975 # 28 DTC” value in assay [2] (setting [6]) is recorded as 67.4%.

As to `CCc1cc(Nc2ncc(Br)c(Nc3ccc4nc(C)sc4c3P(C)(C)=O)n2)c(OC)cc1N1CCC(N2CCN(CCc3cc(F)c([C@H]4CCC(=O)NC4=O)c(F)c3)CC2)CC1` [Example 661, (R)-3-(4-(2-(4-(1-(4-((5-bromo-4-((7-(dimethylphosphoryl)-2-methylbenzo[d]thiazol-6-yl)amino)pyrimidin-2-yl)amino)-2-ethyl-5-methoxyphenyl)piperidin-4-yl)piperazin-1-yl)ethyl)-2,6-difluorophenyl)piperidine-2,6-dione], the DC50 was determined as 8.68 nM in assay [1] (setting [3]) and 0.609 nM in assay [2] (setting [5]). Further, the greatest degradation seen (Dmax) in assay [1] (setting [4]) was found to be 85.8%. For the same molecule, the “Dmax (%) H1975 # 28 DTC” value in assay [2] (setting [6]) amounted to 87.94%.

For the molecule `CCc1cc(Nc2ncc(Br)c(Nc3ccc4nc(C)ccc4c3P(C)(C)=O)n2)c(OC)cc1N1CCC(N2CCN(C(=O)CC3CN(c4cc(F)c([C@H]5CCC(=O)NC5=O)c(F)c4)C3)CC2)CC1` (single isomer, unassigned) [Example 573], the results for the DC50 in assay [1] (setting [3]) and in assay [2] (setting [5]) were 3.36 nM and 0.751 nM, respectively. In addition, in assay [1] (setting [4]), the Dmax is 97.7%. In assay [2] (setting [6]), the “Dmax (%) H1975 # 28 DTC” value was 81.91%.

With `CCc1cc(Nc2ncc(Br)c(Nc3ccc4nc(C)ccc4c3P(C)(C)=O)n2)c(OC)cc1N1CCC(N2CCN(C[C@H]3CCN(c4ccc5c(c4)oc(=O)n5C4CCC(=O)NC4=O)C3)CC2)CC1` (stereo partly drawn) [Example 525, 3-(6-((R)-3-((4-(1-(4-((5-bromo-4-((5-(dimethylphosphoryl)-2-methylquinolin-6-yl)amino)pyrimidin-2-yl)amino)-2-ethyl-5-methoxyphenyl)piperidin-4-yl)piperazin-1-yl)methyl)pyrrolidin-1-yl)-2-oxobenzo[d]oxazol-3(2H)-yl)piperidine-2,6-dione], the 50% degradation concentration (DC50) in assay [1] (setting [3]) was found to be 2.6 nM; in assay [2] (setting [5]), 0.691 nM. Besides, the Dmax in assay [1] (setting [4]) was 94.3%. Also, the “Dmax (%) H1975 # 28 DTC” value in assay [2] (setting [6]) was 50.86%.

In the case of `CCOc1cc(N2CCC(N3CCN(C(=O)[C@H]4CN(c5cc(F)c([C@H]6CCC(=O)NC6=O)c(F)c5)CC4(C)C)CC3)CC2)c(CC)cc1Nc1ncc(Br)c(Nc2cc(F)c3nc(CC)ccc3c2P(C)(C)=O)n1` [Example 746, (R)-3-(4-((R)-4-(4-(1-(4-((5-bromo-4-((5-(dimethylphosphoryl)-2-ethyl-8-fluoroquinolin-6-yl)amino)pyrimidin-2-yl)amino)-5-ethoxy-2-ethylphenyl)piperidin-4-yl)piperazine-1-carbonyl)-3,3-dimethylpyrrolidin-1-yl)-2,6-difluorophenyl)piperidine-2,6-dione], the results for the DC50 in assay [1] (setting [3]) and in assay [2] (setting [5]) were 30.9 nM and 11 nM, respectively. In assay [2] (setting [6]), the “Dmax (%) H1975 # 28 DTC” value came out at 77.61%.

`CCc1cc(Nc2ncc(C(F)(F)F)c(Nc3ccc4nc(C)ccc4c3P(C)(C)=O)n2)c(OC)cc1N1CCC(N2CCN(CCc3cc(F)c(C4CCC(=O)NC4=O)c(F)c3)CC2)CC1` (stereo not drawn) [Example 689, 3-(4-(2-(4-(1-(4-((4-((5-(dimethylphosphoryl)-2-methylquinolin-6-yl)amino)-5-(trifluoromethyl)pyrimidin-2-yl)amino)-2-ethyl-5-methoxyphenyl)piperidin-4-yl)piperazin-1-yl)ethyl)-2,6-difluorophenyl)piperidine-2,6-dione]: the half-maximal degradation concentration (DC50) in assay [1] (setting [3]) was found to be 15.4 nM; in assay [2] (setting [5]), 3.03 nM. In addition, the Dmax in assay [1] (setting [4]) came to 85.1%. Besides, the “Dmax (%) H1975 # 28 DTC” value in assay [2] (setting [6]) stood at 72.37%.

For `CCc1cc(Nc2ncc(Br)c(Nc3ccc4nc(C)ccc4c3P(C)(C)=O)n2)c(OC)cc1N1CCC(N2CCN(C(=O)Cc3cc(F)c([C@H]4CCC(=O)NC4=O)c(F)c3)CC2)CC1` [Example 670, (R)-3-(4-(2-(4-(1-(4-((5-bromo-4-((5-(dimethylphosphoryl)-2-methylquinolin-6-yl)amino)pyrimidin-2-yl)amino)-2-ethyl-5-methoxyphenyl)piperidin-4-yl)piperazin-1-yl)-2-oxoethyl)-2,6-difluorophenyl)piperidine-2,6-dione], the DC50 is 3.37 nM in assay [1] (setting [3]) and 0.634 nM in assay [2] (setting [5]). Besides, the Dmax in assay [1] (setting [4]) stood at 88.3%. For the same molecule, the “Dmax (%) H1975 # 28 DTC” value in assay [2] (setting [6]) was 83.95%.

As to `CCc1cc(Nc2ncc(Br)c(Nc3ccc4c(=O)n(C)ncc4c3P(C)(C)=O)n2)c(OC)cc1N1CCC(N2CCN(C(=O)C3CN(c4cc(F)c(C5CCC(=O)NC5=O)c(F)c4)C3)CC2)CC1` (stereo not drawn) [Example 520, 3-(4-(3-(4-(1-(4-((5-bromo-4-((5-(dimethylphosphoryl)-2-methyl-1-oxo-1,2-dihydrophthalazin-6-yl)amino)pyrimidin-2-yl)amino)-2-ethyl-5-methoxyphenyl)piperidin-4-yl)piperazine-1-carbonyl)azetidin-1-yl)-2,6-difluorophenyl)piperidine-2,6-dione], the DC50 was 5.66 nM in assay [1] (setting [3]) and 0.769 nM in assay [2] (setting [5]). Moreover, the Dmax in assay [1] (setting [4]) is 90.1%. In assay [2] (setting [6]), the “Dmax (%) H1975 # 28 DTC” value stood at 73.99%.

With `CCc1cc(Nc2ncc(Br)c(Nc3ccc4nc(C)ccc4c3P(C)(C)=O)n2)c(OC2CC2)cc1N1CCC(N2CCN(CCc3ccc4c(c3)oc(=O)n4C3CCC(=O)NC3=O)CC2)CC1` (stereo not drawn) [Example 557, 3-(6-(2-(4-(1-(4-((5-bromo-4-((5-(dimethylphosphoryl)-2-methylquinolin-6-yl)amino)pyrimidin-2-yl)amino)-5-cyclopropoxy-2-ethylphenyl)piperidin-4-yl)piperazin-1-yl)ethyl)-2-oxobenzo[d]oxazol-3(2H)-yl)piperidine-2,6-dione], the DC50 turned out to be 6.8 nM in assay [1] (setting [3]) and 0.773 nM in assay [2] (setting [5]). In addition, the Dmax in assay [1] (setting [4]) was determined as 89.1%. For the same molecule, the “Dmax (%) H1975 # 28 DTC” value in assay [2] (setting [6]) is on record as 92.3%.

The DC50 is the concentration at which degradation of the target reaches its halfway point. By Dmax is commonly meant the largest share of the target that was removed.

(Values after patent US20230265116A1, “DEGRADATION OF (EGFR) BY CONJUGATION OF EGFR INHIBITORS WITH E3 LIGASE LIGAND AND METHODS OF USE” (BEIGENE, LTD., priority 2020, published 2023).)
